The values that follow come from US20070081948A1, “Dry powder composition comprising a benzodiazepine for pulmonary inhalation” (Vectura Limited, priority 2003, published 2007).

The nature of the data set: Emitted 6.8 micron particle fraction from vortex chamber versus ratio of chamber diameter to exit port diameter. In kind it is physicochemical. The conditions noted are these: for Normalised average particle fraction <6.8 μm (%): emitted fraction divided by fraction of the loaded powder. From the text: The normalised average 6.8 micron particle fraction is the emitted 6.8 micron particle fraction divided by the 6.8 micron particle fraction of the powdered medicament loaded into the inhaler. The medicament used was pure Intal™ sodium cromoglycate (Fisons UK).

Regarding `O=C(O)c1cc(=O)c2c(OCC(O)COc3cccc4oc(C(=O)O)cc(=O)c34)cccc2o1` [sodium cromoglycate], the “Average particle fraction <6.8 μm (%)” value runs as follows: (Ratio D/De 2.0) 64.7%; (Ratio D/De 3.1) 70.8%; (Ratio D/De 4.0) 75.5%; (Ratio D/De 6.0) 81.0%; (Ratio D/De 7.1) 83.5%; (Ratio D/De 8.0) 83.2%. The “Average particle fraction <6.8 μm (%)” value (Ratio D/De 8.6) is recorded as 80.6%. The “Normalised average particle fraction <6.8 μm (%)” value runs as follows: (Ratio D/De 2.0) 73.1%; (Ratio D/De 3.1) 79.9%; (Ratio D/De 4.0) 85.2%; (Ratio D/De 6.0) 91.4%; (Ratio D/De 7.1) 94.3%; (Ratio D/De 8.0) 93.9%. Moreover, the “Normalised average particle fraction <6.8 μm (%)” value (Ratio D/De 8.6) was determined as 91.0%.
